Test results published in ChEMBL document CHEMBL1201862, “PubChem BioAssay data set” (2004).
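Tested at 5 concentrations; 48 h exposure; 96-well plates; endpoints linearly interpolated, else capped at highest concentration. At the GI50, growth is halved.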 Activity calls are given as the source filed them. Cut-off read from the data, not from the text of the source: active = GI50 up to about 1.1 µM and inactive = higher.

What was measured:
Experiment in all cases: NCI tumour cell line growth inhibition, 48 h
A498 = system: A498
A549 = system: A549
CAKI-1 = system: CAKI-1
CCRF-CEM = system: CCRF-CEM
DLD-1 = system: DLD-1
DMS-273 = system: DMS-273
EKVX = system: EKVX
HCC 2998 = system: HCC 2998
HCT-116 = system: HCT-116
HCT-15 = system: HCT-15
HOP-18 = system: HOP-18
HOP-62 = system: HOP-62
HOP-92 = system: HOP-92
HT-29 = system: HT-29
IGROV-1 = system: IGROV-1
KM12 = system: KM12
LOX IMVI = system: LOX IMVI
M19-MEL = system: M19-MEL
MOLT-4 = system: MOLT-4
Malme-3M = system: Malme-3M
NCI-H226 = system: NCI-H226
NCI-H23 = system: NCI-H23
NCI-H522 = system: NCI-H522
NCI/ADR-RES = system: NCI/ADR-RES
OVCAR-3 = system: OVCAR-3
OVCAR-4 = system: OVCAR-4
OVCAR-5 = system: OVCAR-5
RXF 393 = system: RXF 393
SF-295 = system: SF-295
SF-539 = system: SF-539
SK-MEL-2 = system: SK-MEL-2
SK-MEL-5 = system: SK-MEL-5
SK-OV-3 = system: SK-OV-3
SN12C = system: SN12C
SNB-19 = system: SNB-19
SNB-75 = system: SNB-75
SW-620 = system: SW-620
U-251 = system: U-251
UACC-257 = system: UACC-257
UACC-62 = system: UACC-62
UO-31 = system: UO-31
XF498 = system: XF498
786-0 = system: 786-0
ACHN = system: ACHN
DMS-114 = system: DMS-114
K562 = system: K562
KM-20L2 = system: KM-20L2
LXFL 529 = system: LXFL 529
M14 = system: M14
NCI-H460 = system: NCI-H460
OVCAR-8 = system: OVCAR-8
RPMI-8226 = system: RPMI-8226
SF-268 = system: SF-268
SK-MEL-28 = system: SK-MEL-28
SNB-78 = system: SNB-78
SR = system: SR
TK-10 = system: TK-10

Compound: C=C1C(=O)O[C@H]2[C@H]1[C@@H](OC(=O)C=C(C)C)CC1=C[C@@H](C[C@@]3(C)O[C@@H]23)OC1=O
- GI50 (A498): 7.33 µM (inactive)
- GI50 (A549): 22 µM (inactive)
- GI50 (CAKI-1): 3.14 µM (inactive)
- GI50 (CCRF-CEM): 0.859 µM (active)
- GI50 (DLD-1): 1.6 µM (inactive)
- GI50 (DMS-273): 1.61 µM (inactive)
- GI50 (EKVX): 4.23 µM (inactive)
- GI50 (HCC 2998): 17.4 µM (inactive)
- GI50 (HCT-116): 3.4 µM (inactive)
- GI50 (HCT-15): 1930 nM
- GI50 (HOP-18): 3.05 µM (inactive)
- GI50 (HOP-62): 27.9 µM (inactive)
- GI50 (HOP-92): 2.1 µM (inactive)
- GI50 (HT-29): 4.14 µM (inactive)
- GI50 (IGROV-1): 10.8 µM (inactive)
- GI50 (KM12): 5.74 µM (inactive)
- GI50 (LOX IMVI): 2.27 µM (inactive)
- GI50 (M19-MEL): 3.08 µM (inactive)
- GI50 (MOLT-4): 2.15 µM (inactive)
- GI50 (Malme-3M): 8.04 µM (inactive)
- GI50 (NCI-H226): 21.2 µM (inactive)
- GI50 (NCI-H23): 3.13 µM (inactive)
- GI50 (NCI-H522): 1.16 µM (inactive)
- GI50 (NCI/ADR-RES): 2.17 µM (inactive)
- GI50 (OVCAR-3): 1.59 µM (inactive)
- GI50 (OVCAR-4): 6.32 µM (inactive)
- GI50 (OVCAR-5): 16.7 µM (inactive)
- GI50 (RXF 393): 1.83 µM (inactive)
- GI50 (SF-295): 13.4 µM (inactive)
- GI50 (SF-539): 2.24 µM (inactive)
- GI50 (SK-MEL-2): 9.1 µM (inactive)
- GI50 (SK-MEL-5): 5.55 µM (inactive)
- GI50 (SK-OV-3): 20.9 µM (inactive)
- GI50 (SN12C): 4.54 µM (inactive)
- GI50 (SNB-19): 22.3 µM (inactive)
- GI50 (SNB-75): 18 µM (inactive)
- GI50 (SW-620): 1.43 µM (inactive)
- GI50 (U-251): 16.3 µM (inactive)
- GI50 (UACC-257): 2.18 µM (inactive)
- GI50 (UACC-62): 3.52 µM (inactive)
- GI50 (UO-31): 7.74 µM (inactive)
- GI50 (XF498): 2.05 µM (inactive)

Compound: OCC(O)C(OC1OC(CO)C(O)C(O)C1O)c1nn(-c2ccccc2)c2nc3cc(Cl)ccc3nc12 (stereo not drawn)
- GI50 (786-0): > 100 µM (inactive)
- GI50 (A498): > 100 µM (inactive)
- GI50 (ACHN): > 100 µM (inactive)
- GI50 (CCRF-CEM): > 100 µM (inactive)
- GI50 (DLD-1): > 100 µM (inactive)
- GI50 (DMS-114): > 100 µM (inactive)
- GI50 (EKVX): > 100 µM (inactive)
- GI50 (HCC 2998): > 100 µM (inactive)
- GI50 (HCT-116): > 100 µM (inactive)
- GI50 (HCT-15): > 100000 nM
- GI50 (HOP-62): > 100 µM (inactive)
- GI50 (HT-29): > 100 µM (inactive)
- GI50 (K562): > 100 µM (inactive)
- GI50 (KM-20L2): > 100 µM (inactive)
- GI50 (KM12): > 100 µM (inactive)
- GI50 (LOX IMVI): > 100 µM (inactive)
- GI50 (LXFL 529): > 100 µM (inactive)
- GI50 (M14): > 100 µM (inactive)
- GI50 (M19-MEL): > 100 µM (inactive)
- GI50 (MOLT-4): > 100 µM (inactive)
- GI50 (Malme-3M): > 100 µM (inactive)
- GI50 (NCI-H23): > 100 µM (inactive)
- GI50 (NCI-H460): > 100 µM (inactive)
- GI50 (NCI-H522): > 100 µM (inactive)
- GI50 (OVCAR-3): > 100 µM (inactive)
- GI50 (OVCAR-4): > 100 µM (inactive)
- GI50 (OVCAR-5): > 100 µM (inactive)
- GI50 (OVCAR-8): > 100 µM (inactive)
- GI50 (RPMI-8226): > 100 µM (inactive)
- GI50 (RXF 393): > 100 µM (inactive)
- GI50 (SF-268): > 100 µM (inactive)
- GI50 (SF-295): > 100 µM (inactive)
- GI50 (SF-539): > 100 µM (inactive)
- GI50 (SK-MEL-28): > 100 µM (inactive)
- GI50 (SK-OV-3): > 100 µM (inactive)
- GI50 (SN12C): > 100 µM (inactive)
- GI50 (SNB-19): > 100 µM (inactive)
- GI50 (SNB-75): > 100 µM (inactive)
- GI50 (SNB-78): > 100 µM (inactive)
- GI50 (SR): > 100 µM (inactive)
- GI50 (TK-10): > 100 µM (inactive)
- GI50 (U-251): > 100 µM (inactive)
- GI50 (UACC-257): > 100 µM (inactive)
- GI50 (UACC-62): > 100 µM (inactive)
- GI50 (UO-31): > 100 µM (inactive)
- GI50 (XF498): > 100 µM (inactive)
